Results reported in paper PMC2630844, “Characterizing the Anti-HIV Activity of Papuamide A” (Marine Drugs, 2008).
*1 amine or outer side, *2 acyl side, *3 side chain or, on linkers, in order; H or OH if unused. Where a SMILES comes first, the peptide text is derived from it. Bridges are numbered along the chain shown (N, C = ends). Side-chain parts run from the residue outwards. [ ]: non-standard residue; d: D form. The star is where a group is joined. Gln(3S,4R-Me2) = C[C@H]([C@H](N)C(=O)O)[C@@H](C)C(N)=O; dTyr(βR-OMe) = CO[C@H](c1ccc(O)cc1)[C@@H](N)C(=O)O; Biotin = O=C1N[C@H]2[C@H](CS[C@H]2CCCCC(=O)*)N1; X3 = CC(C)[C@@H](O[*:3])[C@H](N[*:1])C(=O)[*:2]; X1 = CCC(C)/C=C(C)/C=C\C(O)C(C)(O)C(=O)*; X2 = CC(N[*:3])[C@H](N[*:1])C(=O)[*:2]; NMeT = CN[C@H](C(=O)O)[C@@H](C)O; Pip = O=C(O)[C@@H]1CCCCN1; Ahx = NCCCCCC(=O)O

Experiments:
[1] = system: DHIV-3 pseudotype virus expressing X4 tropic envelope (IIINL4), CEM-SS cells; assay type: cell-based, HIV; conditions: duplicate determinations
[2] = system: HIV-1NL4-3 (X4 tropic virus) entry into HeLa T4+ cells; assay: Virion based fusion assay (BlaM-Vpr), X4 tropic virus; assay type: cell-based; conditions: n≥4
[3] = Surface plasmon resonance, papuamide A - positive control peptide; assay type: binding
Method: (§1) The expected response at saturation is determined by the following formula: LCR/MWL×MWA , (LCR=Ligand capture response, amount of papuamide A captured onto the biosensor chip; MWL=molecular weight of ligand, papuamide A; and MWA=molecular weight of analyte, the protein or peptide.)[23–26] The observed response, determined by the BIAcore instrument detector in response units (RU), can be lower than the expected response if the concentration of analyte used is below the dissociation constant (KD) concentration value, KD values were calculated by the software from the binding responses obtained with multiple concentrations of analyte. When this is the case, the fold difference in concentration values (KD/concentration of analyte used) is approximately proportionate to the fold difference in responses (expected response/observe response). Therefore, to correct for the expected response at the maximum concentration tested, the expected response at saturation was divided by the fold difference in concentration values to determine the expected response at the maximum value tested.
Binding interactions were quantified by surface plasmon resonance (SPR). Studies were performed at the University of Utah Protein Interactions facility on a BIAcore 3000 instrument. […] Data analyzed using the SCRUBBER software, developed by the University of Utah Protein Interactions Facility.

[4] = system: 100% phosphatidylcholine (PC) vesicles; assay: Surface plasmon resonance, PC vesicle binding; conditions: 100% PC vesicles; data not shown
Method: (§2) Papuamide A’s ability to bind to phosphatidylserine was observed using surface plasmon resonance. Twenty percent phosphatidylserine and 80% phosphatidylcholine (PC) vesicles were tested alongside 100% PC vesicles. […] This indicates there is a preferential binding of papuamide A to phosphatidylserine. To determine if binding of PS alone was sufficient to inhibit viral entry, annexin V (AV) was tested in the virion based fusion assay.

[5] = system: pseudotype virus expressing JRFL (R5 tropic) envelope, CEM.NKR-CCR5 cells; assay type: cell-based, HIV; conditions: 178 nM (Fig. 4; text 174nM); flow cytometry of GFP, 48 h; n≥3
[6] = system: 20% phosphatidylserine / 80% phosphatidylcholine vesicles; assay: Surface plasmon resonance, PS:PC vesicle binding; conditions: 20% PS, 80% PC vesicles; data not shown
Method: as §2

[7] = system: pseudotype virus expressing amphotropic murine leukemia virus (aMLV) envelope glycoprotein, CEM-SS cells; assay type: cell-based; conditions: 178 nM (Fig. 4; text 174nM); flow cytometry of GFP, 48 h; n≥3
[8] = system: VSV-G pseudotype virus, CEM-SS cells; assay type: cell-based, HIV pseudotyped with vesicular stomatitis virus envelope; conditions: n≥3
[9] = system: pseudotype virus expressing LAI (X4 tropic) envelope, CEM-SS cells; assay type: cell-based, HIV; conditions: 178 nM (Fig. 4; text 174nM); flow cytometry of GFP, 48 h; n≥3
[10] = system: DHIV-3 pseudotype virus expressing IIINL4 envelope, CEM-SS cells; assay type: cell-based, HIV; conditions: papuamide A 178 nM with annexin V 0.1 μM; n=3
[11] = system: viral infection of cells preincubated overnight; assay: Overnight preincubation of cells with papuamide A; assay type: cell-based, HIV; conditions: data not shown
gp120 = gp120 (Human immunodeficiency virus type 1 group M subtype B, UniProt P03375); assay: Surface plasmon resonance, papuamide A - gp120; assay type: binding, HIV
Method: as §1
(§3) Binding interactions were quantified by surface plasmon resonance (SPR). Studies were performed at the University of Utah Protein Interactions facility on a BIAcore 3000 instrument. Briefly, papuamide A was biotinylated using the EZ-Link Sulfo-NHS-LC-LC-Biotin reagent (Pierce Biotechnology, Rockford, IL) with reaction products purified by reverse phase high performance liquid chromatography (HPLC). Biotinylation was confirmed by mass spec and presumed to target the free amine of the 2,3-diaminobutenoic acid. Biotinylated papuamide A was captured onto a chip with a carboxymethylated dextran matrix preimmobilized with streptavidin. Analytes were then flowed over the chip in hepes buffered saline (HBS) running buffer containing 1 mg/mL bovine serum albumin to reduce nonspecific binding. […] Data analyzed using the SCRUBBER software, developed by the University of Utah Protein Interactions Facility.

[12] = system: pseudotype virus infection; assay type: cell-based, HIV; conditions: 174nM papuamide A; flow cytometry of GFP; data not shown
[13] = system: HIV-1NL(AD8) (R5 tropic virus) entry into TZM-bl cells; assay: Virion based fusion assay (BlaM-Vpr), R5 tropic virus
Method: Briefly, production of virus was accomplished by co-transfection of 20 μg of pMM310 (plasmid encoding β-lactamase linked to Vpr, BlaM-Vpr) [56],10 μg pAdVAntage (Invitrogen, Carlsbad, CA); and 60 μg pNL4-3(X4 tropic proviral DNA) [50] or pNL(AD8) (R5 tropic proviral DNA) [51] into 293FT cells using standard calcium phosphate transfection. Virus was collected after 48 hours and titered using the RETROtek p24 ELISA kit (ZeptoMatrix, Buffalo, NY). HeLaT4 or TZM-bl cells, 200μL at a concentration of 1 X 10^5 cells/mL, were plated into 96 well, black walled, flat bottom plates and placed in a 37°C, 5% CO2 humidified incubator overnight for attachment. Medium was aspirated and 200 μL of medium containing virus, at a predetermined p24 concentration of 200 ng/mL, was added with test compounds or vehicle. Cells were incubated at 37°C, 5% CO2 for 2 hours. Virus was aspirated off and cells rinsed twice with room temperature CO2 independent medium (Invitrogen, Carlsbad, CA). Cells were then loaded with CCF2-AM fluorescent substrate (Invitrogen, Carlsbad, CA) according to manufacturer’s protocol. Cells were incubated, protected from light, for 1 hour at room temperature and washed twice with room temperature CO2 independent medium. Next, 200 μL of room temperature CO2 independent medium supplemented with 10% FBS and 2.5mM probenecid (Sigma-Aldrich, St. Louis, MO) was added and the reaction was allowed to develop for 5–7 hours.
When fusion occurs, β-lactamase (BlaM) present in the virus cleaves the CCF2-AM substrate. This cleavage results in a change of the fluorescence emission from green to blue. Images of the cells were taken with a fluorescent microscope equipped with the appropriate filter set, Excitation filter 405±10 nm, Dicroic mirror 425, Emission Filter (blue) 460±20 nm, and Emission Filter (green) 530±15 nm. Using ImageJ, an image software program provided by NIH, the amount of green and blue fluorescence was determined. To quantify the observed fusion, a fluorescence ratio was calculated by dividing the amount of blue fluorescence by the amount of green fluorescence. This value was then normalized to the non-infected control by dividing the calculated values by the average control value.

sCD4 = target: T1, sCD4 (Homo sapiens, UniProt P01730); assay: Surface plasmon resonance, papuamide A - sCD4; assay type: binding
T1 construct: Soluble CD4 (sCD4)
Method: as §1, §3

[14] = system: pseudotype virus expressing vesicular stomatitis virus (VSV) envelope glycoprotein, CEM-SS cells; assay type: cell-based, HIV pseudotyped with vesicular stomatitis virus envelope; conditions: n≥3
[15] = system: NL4-3 BlaM-Vpr virus entry, HeLa T4 cells; assay: Papuamide A preincubation in virion fusion assay; assay type: cell-based, HIV-1; conditions: 178 nM (Fig. 6a) or 710 nM (method), n≥3
Method: HeLa T4 cells were infected with NL4-3 BlaM virus and treated with 710 nM papuamide A, following these three protocols: Virus pretreated with papuamide A for 30 minutes at room temperature prior to dilution and addition to the cells; Cells pretreated with papuamide A for 2 hours followed by aspiration of papuamide A containing medium and addition of virus; Virus and papuamide A added to the cells at the same time.

[16] = system: phosphatidylserine (PS) containing liposomes; conditions: cited from earlier work
Text: (§4) Papuamide B only differs from papuamide A by one methyl group. […] PS is a phospholipid normally present on the inner leaflet of the cell membrane, but during apoptosis the regulation of PS is altered and PS is present on the outer leaflet.

[17] = system: liposomes composed solely of phosphatidylcholine; conditions: cited from earlier work
Text: as §4

[18] = system: HIV infection of monocyte and macrophage; conditions: binding of PS by Annexin V; cited from earlier work
Text: as §4

HIV T cell infection = conditions: binding of PS by Annexin V; cited from earlier work
Text: as §4

With `Cc1cn([C@H]2C[C@H](N=[N+]=[N-])[C@@H](CO)O2)c(=O)[nH]c1=O` [AZT, azidothymidine] the “effect of delayed addition, 1 hour” value ([1]; C34 233 nM or AZT 3.7 μM added 1 hour after virus) was “no difference in activity”, the “effect of delayed addition, 2 hours” value ([1]; C34 233 nM or AZT 3.7 μM added 2 hours after virus) was “only a minor loss of activity” and the “inhibition of viral entry” value ([2]; AZT at 18 μM, fluorescence ratio) was “did not prevent viral entry”.

In the case of `CCC(C)/C=C(C)/C=C\C(O)C(C)(O)C(=O)NCC(=O)N[C@H](C(=O)N[C@H](C(=O)N[C@H](C(=O)N[C@@H]1C(=O)N[C@H](COC)C(=O)NCC(=O)N[C@@H](C)C(=O)N(C)[C@@H]([C@@H](C)O)C(=O)N[C@H]([C@H](OC)c2ccc(O)cc2)C(=O)N2CCCC[C@H]2C(=O)O[C@@H]1C(C)C)[C@@H](C)[C@@H](C)C(N)=O)C(C)NC(=O)CCCCCNC(=O)CCCCCNC(=O)CCCC[C@@H]1SC[C@@H]2NC(=O)N[C@@H]21)[C@@H](C)O` (stereo partly drawn) [papuamide A] (X1-GT[X2]([Ahx-Ahx-Biotin])[Gln(3S,4R-Me2)][X3][dS](Me)GA[NMeT][dTyr(βR-OMe)][Pip]; ester 5-C), the “SPR interaction with positive control peptide” value [3] is reported as “shown to interact with a positive control binding peptide”, the Kd ([3]; calculated by software from binding responses at multiple peptide concentrations, max 5 μM, biotinylated papuamide A captured on chip) is reported as 176 µM and the “SPR vesicle binding” value [4] is reported as “did not”. For the same molecule, the “inhibition of infection” value [5] was “inhibits infection”, the “SPR vesicle binding” value [6] was “exhibited binding to papuamide A” and the “inhibition of infection” value [7] was “effectively inhibited infection”. The “decreased infectivity, pretreated versus simultaneous addition” value ([8]; 178 nM) was “the same as that observed when papuamide A was added to cells at the same time as VSV-G pseudotype virus”, the “decreased infectivity after virus pretreatment” value [8] was roughly 50% and the “inhibition of infection” value [9] was “inhibits infection”. The “effect of papuamide A in presence of annexin V” value [10] was “unchanged in the presence of AV”, the “inhibition of viral entry” value ([2]; 710 nM papuamide A, 2 h infection, blue/green fluorescence ratio) was “approximately 80%” and the “inhibition of X4 and R5 virus entry, papuamide A alongside annexin V” value ([2]; Fig. 7a, X4 (NL4-3)) was “remained active”. For the same molecule, the “inhibition of infection after overnight cell preincubation” value [11] was “failed to inhibit viral infection”, the “observed response lower than calculated expected response” value (gp120; at maximum gp120 concentration tested) was 54 times lower and the “Fold Difference of Responses” value (gp120; expected response at saturation / observed response, gp120) was 1284. For the same molecule, the “SPR binding response significance” value (gp120; gp120) was “determined not to be significant”, the inhibition of infection [12] was “approximately 50%” and the “inhibition of R5 tropic virus entry” value ([13]; 710-43.4 nM, n≥3) was “effectively inhibited the entry of the R5 tropic virus in a dose dependant manner”. The “inhibition of X4 and R5 virus entry, papuamide A alongside annexin V” value ([13]; Fig. 7a, R5 (NL(AD8)), n≥4) was “remained active”, the “observed response lower than calculated expected response” value (sCD4; at maximum sCD4 concentration tested) was 600 times lower and the “Fold Difference of Responses” value (sCD4; expected response at saturation / observed response, sCD4) was 974. For the same molecule, the “SPR binding response significance” value (sCD4; sCD4) was “determined not to be significant”, the “inhibition of infection” value [14] was “effectively inhibited infection” and the “inhibition of viral entry after cell pretreatment” value ([15]; cells incubated with papuamide A 2 hours, removed, two washes, then infected) was “did not result in inhibition of viral entry”. For the same molecule, the “inhibition after virus pretreatment” value ([15]; virus pretreated 30 minutes then diluted) was “rate of inhibition similar to when papuamide A was added at the same time as virus”.

For papuamide B, the “inhibition of viral entry” value ([13]; 710 nM, NL(AD8), n≥4) is listed as “approximately 80%”, the “binding to and leakage of liposomes” value [16] is listed as “bind to and cause leakage of phosphatidylserine (PS) containing liposomes” and the “binding to and leakage of liposomes” value [17] is listed as “not those composed solely of phosphatidylcholine”.

B1: annexin V: a specific binder of PS (protein, UniProt P08758 2-320, looked up)
Annexin A5: AQVLRGTVTDFPGFDERADAETLRKAMKGLGTDEESILTLLTSRSNAQRQEISAAFKTLFGRDLLDDLKSELTGKFEKLIVALMKPSRLYDAYELKHALKGAGTNEKVLTEIIASRTPEELRAIKQVYEEEYGSSLEDDVVGDTSGYYQRMLVVLLQANRDPDAGIDEAQVEQDAQALFQAGELKWGTDEEKFITIFGTRSVSHLRKVFDKYMTISGFQIEETIDRETSGNLEQLLLAVVKSIRSIPAYLAETLYYAMKGAGTDDHTLIRVMVSRSEIDLFNIRKEFRKNFATSLYSMIKGDTSGDYKKALLLLCGEDD
For B1, the “inhibition of X4 virus entry” value ([2]; annexin V at concentrations similar to and higher than that shown to inhibit HIV infection, NL4-3) is listed as “did not have any inhibitory effect”, the “inhibition of R5 virus entry” value ([13]; annexin V at concentrations similar to and higher than that shown to inhibit HIV infection, NL(AD8), n≥4) is listed as “did not have any inhibitory effect” and the “inhibition of infection” value [18] is listed as “able to inhibit monocyte and macrophage infection”. For the same molecule, the “inhibition of infection” value (HIV T cell infection) was “not T cell infection”.
